Assay results reported in US9297048B2, “Antibiotic resistance profile for Neisseria gonorrhoeae and use of same in diagnosis and treatment of gonorrhea” (Medical Diagnostic Laboratories, LLC, priority 2010, dated 2016).
Read-outs that look alike come from different tables or passages of the source.

What was measured:
[1] = test system: Neisseria gonorrhoeae strain ATCC 19424; experiment: Neisseria gonorrhoeae antibiotic resistance panel assay (multiplex PCR + allele-specific primer extension); conditions: no mutations/genetic markers detected
Description: (§1) FIG. 1 is a flow chart summarizing the overall steps for our antibiotic resistance assay. Note that the assay involves multiplex PCRs, followed by allele-specific primer extensions and detection means (e.g., capillary electrophoresis, gel electrophoresis or DNA micro array).
(§2) DNA was isolated from either cells obtained from ATCC or clinical samples (e.g., cervical swab) using standard protocols (i.e., guanidine thiocyanate extraction). Multiplex PCR primers were designed using Beacon Designer software v5.0 (Premier Biosoft, CA). The choice of primers was determined using several parameters including primer length, primer melting temperature, primer annealing temperature and GC content. These primers were selected to avoid hairpin and primer-dimer formation (i.e., avoid possible non-specific hybridization). In our assay, we performed four (4) multiplex PCR. This permits a rapid amplification of genes via multiplex PCRs that lack interference.
(§3) Using the selected primers (Example 4), we performed multiplex allele-specific primer extension reactions. The allele-specific primer extension reaction was performed in a single vessel, which contained a total volume of 20 μl. The multiplex allele-specific reactions contained 1×PCR buffer (Invitrogen, CA), 1.25 mM MgCl2, 100 nM of each primer, 5 μM dATP, dTTP, dGTP (Invitrogen, CA), 5 μM biotin-dCTP (Invitrogen, CA), 1 U of Tsp DNA polymerase (Invitrogen, CA), and 5 μl of purified multiplex PCR products from all four (4) multiplex PCRs as templates.
(§4) Thermal cycling conditions for extension reactions were performed in a Biometra 3.0 PCR System (Biometra, Germany) programmed for an initial cycle of 1 min at 95° C. followed by 35 cycles of 30 sec at 95° C., 30 sec at 55° C., and 30 sec at 72° C. A final 10 min extension step was performed at 72° C.
(§5) Detection of allele-specific extended primers is indicative of the presence of SNP in the genes examined. Detection of allele-specific extended primers can be achieved by several methodologies. This includes gel electrophoresis, capillary electrophoresis, as well as DNA microarray. In this particular example, we illustrated the use of a DNA microarray. The working principle of a DNA microarray involves the use of microspheres to hybridize and sort out the allele-specific extended primers, and followed by their subsequent detection using an array reader. The presence of fluorescence is indicative of the presence of an allele-specific extended primer, which in turn is indicative of the presence of a SNP in the gene.
(§6) Extended allele-specific primer hybridizations were performed using oligonucleotide-labeled xMAP flow cytometric microspheres (Luminex Corp, TX) in a hybridization buffer containing 0.2 M NaCl, 0.08% sodium lauroylsarcosine, 0.1 M Tris-HCl, pH 8.0, and 4 mM EDTA pH 8.0. Reactions were carried out in a Biometra 3.0 PCR System (Biometra, Germany) programmed for a 3 min melting at 95° C. and a 15 min hybridization at 37° C.
(§7) Sorting of allele-specific extended primers hybridized to xMAP microspheres was performed using a Bio-Plex 200 (Bio-Rad, CA) flow cytometry instrument.
(§8) 1 μl Streptavidin R-phycoerythrin conjugate (SAPE) and 250 μl 1×NaCl hybridization buffer was added to each sorted xMAP microsphere. Microspheres hybridized to allele-specific extended primers containing biotin-dCTP fluoresce and were detected using the Bio-Plex 200 array reader.
(§9) Using our antibiotic resistance panel assay, we examined the antibiotic resistance profile in these six (6) Neisseria gonorrhoeae strains. The results of the panel assay are presented in graphical format which includes 30 genetic markers (i.e., 28 point mutations in eight (8) chromosomal genes in Neisseria gonorrhoeae, two (2) plasmid genes, as well as 17 alleles in controls). Normal alleles are shown by white bars, mutant alleles, confirming resistance, are shown by black bars (See, FIGS. 3-8). […]

[2] = test system: Neisseria gonorrhoeae strain ATCC 27628; experiment: as above; conditions: no mutations/genetic markers detected
Description: as §1, §2, §3, §4, §5, §6, §7, §8, §9

[3] = test system: Neisseria gonorrhoeae strain ATCC 31426; experiment: as above; conditions: concluded from mutations/genetic markers detected
Description: as §1, §2, §3, §4, §5, §6, §7, §8, §9

[4] = test system: Neisseria gonorrhoeae strain ATCC 49981; experiment: as above; conditions: concluded from mutations/genetic markers detected
Description: as §1, §2, §3, §4, §5, §6, §7, §8, §9

[5] = test system: Neisseria gonorrhoeae from clinical sample 1; experiment: Antibiotic resistance panel assay on cervicovaginal swab; conditions: mutations in penA, ponA, porB, mtrR, rpsJ
Description: (§10) Cervicovaginal swabs were obtained using OneSwab® technology.
The presence of Neisseria gonorrhoeae in all three (3) clinical samples were confirmed using our panel assay in which porA was used as a Neisseria gonorrhoeae species-specific marker.

[6] = test system: Neisseria gonorrhoeae from clinical sample 2; experiment: as above; conditions: mutations in penA, gyrA, ponA, parC, porB, mtrR, rpsJ
Description: as §10

[7] = test system: Neisseria gonorrhoeae isolates containing mosaic penA; conditions: cited from earlier work
[8] = test system: Neisseria gonorrhoeae strain ATCC 31953; experiment: Neisseria gonorrhoeae antibiotic resistance panel assay (multiplex PCR + allele-specific primer extension); conditions: concluded from mutations/genetic markers detected
Description: as §1, §2, §3, §4, §5, §6, §7, §8, §9

[9] = test system: Neisseria gonorrhoeae strain ATCC 49226; experiment: as above; conditions: concluded from mutations/genetic markers detected
Description: as §1, §2, §3, §4, §5, §6, §7, §8, §9

[10] = test system: Neisseria gonorrhoeae from clinical sample 3; experiment: Antibiotic resistance panel assay on cervicovaginal swab; conditions: mutations in penA and rpsJ

Compound | Antibiotic Resistance Profile Using our Assay [1] | Antibiotic Resistance Profile Using our Assay [2] | Antibiotic Resistance Profile Using our Assay [3] | Antibiotic Resistance Profile Using our Assay [4] | level of antibiotic resistance implied by panel assay [5] | level of resistance implied by panel assay [6] | MICs ([7]; three of five mosaic penA isolates containing the G545S C-terminal mutation) | MICs ([7]; two mosaic penA isolates without the G545S C-terminal mutation) | Antibiotic Resistance Profile Using our Assay [8] | Antibiotic Resistance Profile Using our Assay [9] | level of resistance implied by panel assay [10]
CC[C@H]1OC(=O)[C@H](C)[C@@H](O[C@H]2C[C@@](C)(OC)[C@@H](O)[C@H](C)O2)[C@H](C)[C@@H](O[C@@H]2O[C@H](C)C[C@H](N(C)C)[C@H]2O)[C@](C)(O)C[C@@H](C)CN(C)[C@H](C)[C@@H](O)[C@]1(C)O [azithromycin] | susceptible | susceptible | resistant | resistant | intermediate level of antibiotic resistance | intermediate level of resistance | – | – | – | – | –
CO/N=C(\C(=O)N[C@@H]1C(=O)N2C(C(=O)O)=C(CSc3nc(=O)c(=O)[nH]n3C)CS[C@H]12)c1csc(N)n1 [ceftriaxone] | – | – | – | – | – | – | elevated MICs | wild-type MICs | – | – | –
O=C(O)c1cn(C2CC2)c2cc(N3CCNCC3)c(F)cc2c1=O [ciprofloxacin] | susceptible | susceptible | resistant | resistant | – | – | – | – | resistant | – | –
CN[C@@H]1[C@H](O)[C@H](NC)[C@H]2O[C@@]3(O)C(=O)C[C@@H](C)O[C@H]3O[C@@H]2[C@H]1O [spectinomycin] | susceptible | susceptible | – | – | – | – | – | – | – | – | –
penicillin | susceptible | susceptible | resistant | resistant | intermediate level of antibiotic resistance | high level of resistance | – | – | – | resistant | low level of resistance
